Test results taken from patent US20090118253A1, “COMPOSITIONS AND METHODS FOR TREATING DYSFUNCTIONAL UTERINE BLEEDING” (REPROS THERAPEUTICS INC., priority 2007, published 2009).

Assay: Urinary progesterone levels (luteal phase) in cynomolgus monkeys
Format: in vivo, Cynomolgus monkeys (Macaca fascicularis)
Details: n=14 per group; CDB-4124 or RU-486 oral 1.0 mg/kg/day for 36 weeks; Lupron IM once per month
Protocol: Cynomolgus monkeys (Macaca fascicularis) (n=14) were treated orally for 36 weeks with CDB-4124 or RU-486 at 1.0 mg/kg/day or with placebo (control). Another group (n=14) received Lupron® IM once per month. Urinary progesterone levels were measured for each animal for one month during the middle of the study (weeks 14-17) and for the last month of the study (weeks 33-36).

**Q.** For `COCC(=O)[C@@]1(OC(C)=O)CC[C@H]2[C@@H]3CCC4=CC(=O)CCC4=C3[C@@H](c3ccc(N(C)C)cc3)C[C@@]21C` [CDB-4124, 21-methoxy-17α-acetoxy-11β-(4 N,N-dimethylaminophenyl)-19-norpregna-4,9-diene-3,20-dione], which “Decrease in luteal phase progesterone (number of animals)” value is on record?
**A.** 8

**Q.** And the “No decrease in luteal phase progesterone (number of animals)” value?
**A.** 6
